Test results taken from patent US20260355325A1, “DIMER COMPOUNDS” (KESMALEA THERAPEUTICS LIMITED, priority 2023, published 2026).

Biological target: T1, BTK (Homo sapiens, UniProt Q06187)
T1 construct: immunofluorescence degradation readout, 48 h
Assay: BTK IFA Assay (BTK degradation in OCI-Ly10 cells)
Format: cell-based
Details: BTK degradation in OCI-Ly10 cells at 48-hour timepoint
Protocol: The purpose of the BTK Assays were to assess the binding affinity of the dimer to BTK and subsequent protein degradation.
OCI-Ly10 cells were obtained from CoBioer Biosciences Co. Ltd, Shanghai, China, and maintained in IMDM (Invitrogen™, Waltham, MA) supplemented with 20% FBS (AusGeneX, Molendinar, Australia) and 1%, penicillin/streptomycin (Invitrogen™, Waltham, MA) in a humidified incubator at 5% CO2, 37° C.
Compounds were dissolved in DMSO (10 mM), serially diluted from 10 mM to 1.5 nM, and pre-incubated for 2 hours. Exponentially growing cells were seeded at 8×10^3 cells per well of 384 well plate (Corning, New York #356663). Cells were treated with compound for 48 hours. Following treatment, cells were fixed with 4% PFA (SolarBio Lifescience, Beijing, China) for 20 minutes, permeabilised in 100% ice-cold methanol (Merck, Darmstadt, Germany) for 10 minutes, and blocked with blocking buffer (LI-COR Biosciences Lincoln, NE) for 90 minutes.
Cells were incubated with primary BTK antibody (CST #8547 Danvers, MA) at 1:1000 dilution overnight in blocking buffer (LI-COR, Lincoln, NE) at 4° C. Cells were washed in DPBS (Thermo Fisher Scientific, Waltham, MA) and incubated with secondary antibody AlexaFluor 488 goat anti rabbit (Invitrogen™ #A-11008 Waltham, MA) 1:1000 dilution, with Hoechst stain (Invitrogen™ Waltham, MA) 1:5000 dilution in blocking buffer (LI-COR Biosciences, Lincoln, NE) for 90 minutes. After final DPBS wash, 200 ul of DPBS was added to the cells, and signal read on Operetta (Revvity, Waltham, MA). Each data point was performed in duplicate for every experiment. A DC50 value was calculated from linear regression analysis of the plots.

T1 sequence (Q06187 whole entry): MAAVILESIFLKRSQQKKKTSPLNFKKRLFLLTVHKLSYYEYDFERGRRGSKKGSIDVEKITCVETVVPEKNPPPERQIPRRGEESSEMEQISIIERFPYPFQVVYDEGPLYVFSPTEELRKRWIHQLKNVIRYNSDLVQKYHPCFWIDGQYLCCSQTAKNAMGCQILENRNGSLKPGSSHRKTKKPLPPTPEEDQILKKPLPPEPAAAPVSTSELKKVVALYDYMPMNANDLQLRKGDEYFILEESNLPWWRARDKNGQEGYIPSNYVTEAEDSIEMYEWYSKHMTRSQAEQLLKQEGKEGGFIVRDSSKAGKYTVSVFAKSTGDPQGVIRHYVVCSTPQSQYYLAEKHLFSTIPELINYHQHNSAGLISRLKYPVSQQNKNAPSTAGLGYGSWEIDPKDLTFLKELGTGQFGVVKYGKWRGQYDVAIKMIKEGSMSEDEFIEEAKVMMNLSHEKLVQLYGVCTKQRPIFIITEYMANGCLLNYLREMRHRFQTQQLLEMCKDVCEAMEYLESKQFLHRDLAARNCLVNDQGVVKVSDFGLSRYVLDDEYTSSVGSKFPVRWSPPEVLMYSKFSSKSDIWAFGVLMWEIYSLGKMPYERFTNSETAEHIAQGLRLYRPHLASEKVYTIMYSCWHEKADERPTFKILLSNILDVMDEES

Row | SMILES | DC50 [nM]
1 | Cc1cc(C(=O)N(C)CCOc2cccc3c2CN(C2CCC(=O)NC2=O)C3=O)ccc1B1O[C@H]2C[C@H]3C[C@H](C3(C)C)[C@@]2(CCOCC(=O)N2CCC(n3nc(-c4ccc(Oc5ccccc5)cc4)c4c(N)ncnc43)CC2)O1 (mixture of isomers) [Example 20, 4-((3aR,4R,6R,7aS)-3a-(2-(2-(4-(4-amino-3-(4-phenoxyphenyl)-1H-pyrazolo[3,4-d]pyrimidin-1-yl)piperidin-1-yl)-2-oxoethoxy)ethyl)-5,5-dimethylhexahydro-4,6-methanobenzo[d][1,3,2]dioxaborol-2-yl)-N-(2-((2-(2,6-dioxopiperidin-3-yl)-1-oxoisoindolin-4-yl)oxy)ethyl)-N,3-dimethylbenzamide] | 1000 to 10000
2 | Cc1cc(C(=O)N(C)CCCOc2ccc3c(c2)n(C)c(=O)n3C2CCC(=O)NC2=O)ccc1B1O[C@H]2C[C@H]3C[C@H](C3(C)C)[C@@]2(CCOCC(=O)N2CCC(n3nc(-c4ccc(Oc5ccccc5)cc4)c4c(N)ncnc43)CC2)O1 (mixture of isomers) [Example 16, 4-((3aR,4R,6R,7aS)-3a-(2-(2-(4-(4-amino-3-(4-phenoxyphenyl)-1H-pyrazolo[3,4-d]pyrimidin-1-yl)piperidin-1-yl)-2-oxoethoxy)ethyl)-5,5-dimethylhexahydro-4,6-methanobenzo[d][1,3,2]dioxaborol-2-yl)-N-(3-((1-(2,6-dioxopiperidin-3-yl)-3-methyl-2-oxo-2,3-dihydro-1H-benzo[d]imidazol-5-yl)oxy)propyl)-N,3-dimethylbenzamide] | 500 to 1000
3 | Cc1ccc(C(=O)N(C)CCCOc2cccc3c2CN(C2CCC(=O)NC2=O)C3=O)cc1B1O[C@H]2C[C@H]3C[C@H](C3(C)C)[C@@]2(CCOCC(=O)N2CCC(n3nc(-c4ccc(Oc5ccccc5)cc4)c4c(N)ncnc43)CC2)O1 (mixture of isomers) [Example 19, 3-((3aR,4R,6R,7aS)-3a-(2-(2-(4-(4-amino-3-(4-phenoxyphenyl)-1H-pyrazolo[3,4-d]pyrimidin-1-yl)piperidin-1-yl)-2-oxoethoxy)ethyl)-5,5-dimethylhexahydro-4,6-methanobenzo[d][1,3,2]dioxaborol-2-yl)-N-(3-((2-(2,6-dioxopiperidin-3-yl)-1-oxoisoindolin-4-yl)oxy)propyl)-N,4-dimethylbenzamide] | 500 to 1000

Results, then the compound that gave them:

Row | DC50 [nM] | SMILES
4 | 100 to 500 | Cc1cc(C(=O)NCCC#Cc2cccc3c2CN(C2CCC(=O)NC2=O)C3=O)ccc1B1O[C@H]2C[C@H]3C[C@H](C3(C)C)[C@@]2(CCOCC(=O)N2CCC(n3nc(-c4ccc(Oc5ccccc5)cc4)c4c(N)ncnc43)CC2)O1 (mixture of isomers) [Example 17, 4-((3aR,4R,6R,7aS)-3a-(2-(2-(4-(4-amino-3-(4-phenoxyphenyl)-1H-pyrazolo[3,4-d]pyrimidin-1-yl)piperidin-1-yl)-2-oxoethoxy)ethyl)-5,5-dimethylhexahydro-4,6-methanobenzo[d][1,3,2]dioxaborol-2-yl)-N-(4-(2-(2,6-dioxopiperidin-3-yl)-1-oxoisoindolin-4-yl)but-3-yn-1-yl)-3-methylbenzamide]
5 | 100 to 500 | Cc1cc(C(=O)N(C)CCCOc2ccc3c(c2)n(C)c(=O)n3C2CCC(=O)NC2=O)ccc1B1O[C@H]2C[C@H]3C[C@H](C3(C)C)[C@@]2(CCOCCN2CCC(n3nc(-c4ccc(Oc5ccccc5)cc4)c4c(N)ncnc43)CC2)O1 (stereo partly drawn) [Example 14, 4-((3aR,4R,6R,7aS)-3a-(2-(2-(4-(4-amino-3-(4-phenoxyphenyl)-1H-pyrazolo[3,4-d]pyrimidin-1-yl)piperidin-1-yl)ethoxy)ethyl)-5,5-dimethylhexahydro-4,6-methanobenzo[d][1,3,2]dioxaborol-2-yl)-N-(3-((1-(2,6-dioxopiperidin-3-yl)-3-methyl-2-oxo-2,3-dihydro-1H-benzo[d]imidazol-5-yl)oxy)propyl)-N,3-dimethylbenzamide]
6 | 100 to 500 | Cc1cc(C(=O)NCCC#Cc2cccc3c2CN(C2CCC(=O)NC2=O)C3=O)ccc1B1O[C@H]2C[C@H]3C[C@H](C3(C)C)[C@@]2(CCOCCN2CCC(n3nc(-c4ccc(Oc5ccccc5)cc4)c4c(N)ncnc43)CC2)O1 (mixture of isomers) [Example 15, 4-((3aR,4R,6R,7aS)-3a-(2-(2-(4-(4-amino-3-(4-phenoxyphenyl)-1H-pyrazolo[3,4-d]pyrimidin-1-yl)piperidin-1-yl)ethoxy)ethyl)-5,5-dimethylhexahydro-4,6-methanobenzo[d][1,3,2]dioxaborol-2-yl)-N-(4-(2-(2,6-dioxopiperidin-3-yl)-1-oxoisoindolin-4-yl)but-3-yn-1-yl)-3-methylbenzamide]
7 | 500 to 1000 | Cc1cc(C(=O)N(C)CCCOc2cccc3c2CN(C2CCC(=O)NC2=O)C3=O)ccc1B1O[C@H]2C[C@H]3C[C@H](C3(C)C)[C@@]2(CCOCC(=O)N2CCC(n3nc(-c4ccc(Oc5ccccc5)cc4)c4c(N)ncnc43)CC2)O1 (stereo partly drawn) [Example 18, 4-((3aR,4R,6R,7aS)-3a-(2-(2-(4-(4-amino-3-(4-phenoxyphenyl)-1H-pyrazolo[3,4-d]pyrimidin-1-yl)piperidin-1-yl)-2-oxoethoxy)ethyl)-5,5-dimethylhexahydro-4,6-methanobenzo[d][1,3,2]dioxaborol-2-yl)-N-(3-((2-(2,6-dioxopiperidin-3-yl)-1-oxoisoindolin-4-yl)oxy)propyl)-N,3-dimethylbenzamide]
